According to article PMC7508583, “Discovery and Preclinical Development of Antigiardiasis Fumagillol Derivatives” (Antimicrobial Agents and Chemotherapy, 2020):
Values after ≈ are worked out from the molar mass of the structure shown.

Columns and labels:
[1] = set-up: method as in earlier work; details: degraded from 98% purity; Sanofi; cited from earlier work
[2] = system: G. lamblia GS trophozoites; set-up: method as in PMID 21078930, PMID 25267663; details: read-out: IC50 against assemblage B GS strain; cited from earlier work
[3] = system: G. lamblia WB trophozoites; set-up: method as in PMID 21078930, PMID 25267663; details: read-out: IC50 against assemblage A WB strain; cited from earlier work
[4] = system: G. lamblia GS trophozoites; set-up: method as in PMID 25267663; details: proliferation assay; cited from earlier work
[5] = system: G. lamblia WB trophozoites; set-up: method as in PMID 25267663; details: proliferation assay; cited from earlier work
[6] = system: G. lamblia GS trophozoites; assay: Trophozoite viability MLC determination; format: cell-based, Giardia lamblia
Description: The inhibition of metabolism enables the organism to resume proliferation once treatment is completed. To discriminate between the lethality of the promising compounds and the induction of metabolic inactivity by the promising compounds, the minimum lethal concentration (MLC) values were determined by treating the trophozoites with the test compounds for 3 days and transferring the resulting cultures to medium lacking the compounds for 3 days of proliferation. This assay was described previously for G. lamblia ([18]) and was adapted to E. histolytica in the current study.
Trophozoites of G. lamblia isolates WB and GS were grown anaerobically in borosilicate glass screw-cap culture tubes (Fisher Scientific) at pH 7.0 in Keister’s modified TYI-S-33 medium (ATCC). The medium was supplemented with 10% heat-inactivated bovine serum (Sigma-Aldrich) and 0.05% bovine bile (Sigma-Aldrich). To attain low-oxygen-tension conditions, the tubes were filled to 85% to 90% of their total volume capacity and incubated without shaking at 37°C. Subcultures (2 × 10^5 trophozoites per tube) were made three times a week. Detachment of trophozoites for inoculation was achieved by chilling the cultures on ice for 20 min. Culturing and detachment of metronidazole-resistant G. lamblia assemblage A 713M3 and assemblage B 1279-M1 trophozoites followed the same protocol, except that the growth medium was supplemented with metronidazole, with the concentration gradually being increased to 10 μM.
Compounds were prepared by 2-fold serial dilutions in growth medium containing 0.5% DMSO (diluted from a starting concentration of 1 μM to 12 concentrations for all compounds except metronidazole, fumagillol, and TNP-470, which were diluted from 100 μM), and 100 μl/well was transferred in duplicate to the 96-well culture plate. Ten microliters of G. lamblia trophozoites was plated at a density of 10,000 cells/well. The plates were incubated under anaerobic condition in a BD GasPak EZ container system (BD Diagnostics) at 37°C for 72 h and surveyed visually under a microscope to check trophozoite survival, mobility, and attachment. […] The tubes were incubated under anaerobic condition for 3 days at 37°C and checked under a microscope. The MLC value was the concentration in the tube with the lowest compound concentration without any live organism.

[7] = Plasma pharmacokinetics in mice; format: in vivo, C57BL/6 female mice
Description: The mean plasma concentration-time profiles for intravenous (i.v.) and per os (p.o.) administration in C57BL/6 female mice are shown in Fig. 6A. […] In contrast, at the earliest time point (15 min) following oral administration of a 6.6-mg/kg bolus, the plasma concentration reached a maximum of ∼92 ng/ml and then decreased gradually and remained detectable for 8 h.
Plasma intravenous (i.v.) and per os (p.o.) pharmacokinetic studies were performed in C57BL/6 female mice, using two groups of three mice each. […] The second group of mice received a 6.6-mg/kg dose orally; this dose matched the therapeutic dose that cured giardiasis with no remaining proliferating trophozoites. Blood samples were withdrawn at 5, 15, and 30 min and 1, 2, 4, 8, and 24 h after administration for the i.v. treated mouse group and at the same time intervals but beginning at 15 min for the p.o. treated mouse group. The samples were extracted with 60% water-diluted acetonitrile and were frozen at −20°C until analysis.
Blank and test compound-containing samples were thawed, vortexed to ensure complete mixing of the contents, and centrifuged at 4,000 rpm at 20°C for 10 min. The supernatants were transferred into autoinjector vials. The vials were loaded, and 30-μl sample volumes were injected onto an API 4000 LC-MS/MS system. The Agilent XDB C18 column was used for the liquid chromatographic step at a flow rate of 0.6 ml/min. The mass spectrometer was operated in the electrospray ionization-positive mode. Curcumin served as an internal standard. The chromatograms were evaluated using Analyst (version 1.6.3) software.

[8] = Single-dose acute toxicity (MTD) and histopathology; details: in vivo
Description: The tissues of three surviving mice were analyzed along with the tissues of three animals treated with the vehicle alone. […] Based on these findings, the maximum tolerated dose (MTD) value was determined to be 1,500 mg/kg.
The maximum tolerated dose (MTD) determination was performed using 8- to 10-week-old C57BL/6 female mice in five groups of 6 animals each. The mice were acclimated to the study room for a week. Animals were randomized by body weight prior to being assigned to dosage groups at the outset of the study. […] Following an up-down dosing strategy, the clinical signs and body weights of the animals in a study group were evaluated daily for 5 days before escalating or reducing the dose administered to the next group, as appropriate. The clinical observations included posture, vocalization, ease of handling, lacrimation, chromodacryorrhea, salivation, coat appearance, rearing frequency, transfer arousal, piloerection, motor movements, tail pinch, and diarrhea.
The histopathology examination included 3 mice that survived treatment with the 2,000-mg/kg dose and 3 mice that received the vehicle alone. Brain, heart, lung, spleen, and liver tissues were examined. Formalin-fixed tissues were embedded in paraffin to produce 4-μm-thick sections. The paraffin wax was removed, and the tissues were stained with Gill’s hematoxylin for 5 to 10 min. The samples were rinsed in tap water, followed by ammonia water, and stained with eosin Y for 5 min. The hematoxylin-eosin-stained tissues were dehydrated and mounted for light microscopic examination.

SMILES: CO[C@@H]1[C@H](OC(=O)/C=C/C=C/C=C/C=C/C(=O)O)CC[C@]2(CO2)[C@H]1[C@@]1(C)O[C@@H]1CC=C(C)C [Fumagillin, reference compound]
- purity after storage at 40°C for 2 weeks at ambient humidity [1]: 85%
- IC50 [2]: 2 nM
- IC50 [3]: 10 nM
- MLC, GS strain [4]: 0.26 µM (≈ 0.119 µg/mL)
- MLC, WB strain [5]: 0.7 µM (≈ 0.321 µg/mL)

SMILES: COC1C(OC(=O)NC(=O)CN2CCOCC2)CCC2(CO2)C1C1(C)OC1CC=C(C)C (stereo not drawn) [Compound 3]
- fold improved MLCs compared with the MLC of fumagillin [6]: ~100 fold

SMILES: CO[C@@H]1[C@H](OC(=O)Nc2ccc(C(=O)O)cc2)CC[C@]2(CO2)[C@H]1[C@@]1(C)O[C@@H]1CC=C(C)C [Compound 9, 4-(((((3R,4S,5S,6R)-5-methoxy-4-((2R,3R)-2-methyl-3-(3-methylbut-2-en-1-yl)oxiran-2-yl)-1-oxaspiro[2.5]octan-6-yl)oxy)carbonyl)amino)benzoic acid]
- time plasma concentration remained detectable ([7]; 6.6 mg/kg oral bolus): 8 h
- maximum plasma concentration ([7]; 6.6 mg/kg oral bolus, C57BL/6 female mice): ~92 ng/mL
- time point of maximum plasma concentration ([7]; 6.6 mg/kg oral bolus, earliest time point): 15 min
- half-life ([7]; mouse, iv, 2 mg/kg i.v., plasma, C57BL/6 female mice, read-out: calculated half-life): 7.2 min
- concentration at 5 min ([7]; mouse, plasma, intravenous, 2 mg/kg i.v. bolus, C57BL/6 female mice, read-out: plasma concentration at the 5-min time point): ~136 ng/mL
- concentration at 1 h ([7]; mouse, plasma, intravenous, 2 mg/kg i.v. bolus, C57BL/6 female mice, read-out: plasma concentration by 1 h after dosing (below limit of quantification)): < 5 ng/mL
- LD50 at 5 days ([8]; female, C57BL/6, mouse, po): > 2000 mg/kg
- MTD at 5 days ([8]; female, C57BL/6, mouse, po): 1500 mg/kg
- histopathology of liver, heart, brain, lung, spleen ([8]; mouse): normal tissue with no significant changes compared with the control tissues
- mortality ([8]; mouse): two mice died unexpectedly
- reduced body weight on day 3 ([8]; mouse): ~15%
- weight change and clinical signs ([8]; mouse): no weight change and no negative clinical signs
